Assay results from ChEMBL document CHEMBL6134779, “Design of Proteolytic-Resistant Antifungal Peptides by Utilizing Minimum d-Amino Acid Ratios” (J Med Chem, 2024).
≈ marks a conversion by molar mass, not a printed value. Calls of active or inactive are those of the source. The rule behind the calls is not given here.

What was measured:
[1] = system: Candida albicans; experiment: Antifungal activity against Candida albicans CGMCC 2.2086 assessed as inhibition of fungal growth incubated for 48 hrs; assay type: functional
[2] = system: Candida tropicalis; experiment: Antifungal activity against Candida tropicalis CGMCC 2.1975 assessed as inhibition of fungal growth incubated for 48 hrs; assay type: functional
[3] = system: Candida albicans; experiment: Antifungal activity against Candida albicans SP3902 assessed as inhibition of fungal growth incubated for 48 hrs; assay type: functional
[4] = system: Candida albicans; experiment: Antifungal activity against Candida albicans SP3903 assessed as inhibition of fungal growth incubated for 48 hrs; assay type: functional
[5] = system: Candida albicans; experiment: Antifungal activity against Fluconazole-resistant Candida albicans 58288 assessed as inhibition of fungal growth incubated for 48 hrs; assay type: functional
[6] = system: Candida albicans; experiment: Antifungal activity against Candida albicans SP3876 assessed as inhibition of fungal growth incubated for 48 hrs; assay type: functional
[7] = system: Candida albicans; experiment: Antifungal activity against Candida albicans SP3931 assessed as inhibition of fungal growth incubated for 48 hrs; assay type: functional
[8] = system: Candida albicans; experiment: Antifungal activity against Candida albicans 14936 assessed as inhibition of fungal growth incubated for 48 hrs; assay type: functional
[9] = system: Candida albicans; experiment: Antifungal activity against Candida albicans 17546 assessed as inhibition of fungal growth incubated for 48 hrs; assay type: functional
[10] = system: Candida albicans; experiment: Antifungal activity against Fluconazole-resistant Candida albicans 56214 assessed as inhibition of fungal growth incubated for 48 hrs; assay type: functional
[11] = system: Candida albicans; experiment: Antifungal activity against Candida albicans 56452 assessed as inhibition of fungal growth incubated for 48 hrs; assay type: functional
[12] = system: Candida parapsilosis; experiment: Antifungal activity against Candida parapsilosis CGMCC 2.3989 assessed as inhibition of fungal growth incubated for 48 hrs; assay type: functional; settings: Lodderomyces parapsilosis
[13] = Hemolytic activity in human red blood cells assessed as hemolysis incubated for 1 hr; assay type: toxicity, cell-based, Erythrocyte
[14] = Hemolytic activity in human red blood cells assessed as hemolysis rate at 512 uM incubated for 1 hr relative to control; assay type: toxicity, cell-based, Erythrocyte; settings: read-out: Activity
[15] = system: HEK293; experiment: Cytotoxicity against HEK293 cells assessed as cell death at 64 uM measured after 8 hrs by calcein-AM and propidium iodide Live/Dead dye staining assay; assay type: toxicity, cell-based; settings: human, hek293, 8 h
[16] = system: Candida albicans; experiment: Antifungal activity against Candida albicans CGMCC 2.2086 assessed as inhibition of fungal growth incubated for 48 hrs in presence of NaCl; assay type: functional
[17] = system: Candida albicans; experiment: Antifungal activity against Candida albicans CGMCC 2.2086 assessed as inhibition of fungal growth incubated for 48 hrs in presence of KCl; assay type: functional
[18] = system: Candida albicans; experiment: Antifungal activity against Candida albicans CGMCC 2.2086 assessed as inhibition of fungal growth incubated for 48 hrs in presence of NH4Cl; assay type: functional
[19] = system: Candida albicans; experiment: Antifungal activity against Candida albicans CGMCC 2.2086 assessed as inhibition of fungal growth incubated for 48 hrs in presence of MgCl2; assay type: functional
[20] = system: Candida albicans; experiment: Antifungal activity against Candida albicans CGMCC 2.2086 assessed as inhibition of fungal growth incubated for 48 hrs in presence of ZnCl2; assay type: functional
[21] = system: Candida albicans; experiment: Antifungal activity against Candida albicans CGMCC 2.2086 assessed as inhibition of fungal growth incubated for 48 hrs in presence of FeCl3; assay type: functional
[22] = system: Candida albicans; experiment: Antifungal activity against Candida albicans CGMCC 2.2086 assessed as inhibition of fungal growth incubated for 48 hrs in presence of CaCl2; assay type: functional
[23] = Stability of the compound in NaCl assessed as change in secondary structure by CD spectra analysis; assay type: physicochemical
[24] = Stability of the compound in KCl assessed as change in secondary structure by CD spectra analysis; assay type: physicochemical
[25] = Stability of the compound in NH4Cl assessed as change in secondary structure by CD spectra analysis; assay type: physicochemical
[26] = Stability of the compound in MgCl2 assessed as change in secondary structure by CD spectra analysis; assay type: physicochemical
[27] = Stability of the compound in ZnCl2 assessed as change in secondary structure by CD spectra analysis; assay type: physicochemical
[28] = Stability of the compound in FeCl3 assessed as change in secondary structure by CD spectra analysis; assay type: physicochemical
[29] = Stability of the compound in CaCl2 assessed as change in secondary structure by CD spectra analysis; assay type: physicochemical
[30] = system: Candida albicans; experiment: Antifungal activity against Candida albicans CGMCC 2.2086 assessed as inhibition of fungal growth incubated for 2 to 4 hrs in presence of 100% serum; assay type: functional, organism-based; settings: time 2-4 hrs
[31] = system: Candida albicans; experiment: Antifungal activity against Candida albicans CGMCC 2.2086 assessed as inhibition of fungal growth incubated for 2 hrs in presence of trypsin; assay type: functional, organism-based
[32] = system: Candida albicans; experiment: Antifungal activity against Candida albicans CGMCC 2.2086 assessed as inhibition of fungal growth incubated for 2 hrs in presence of chymotrypsin; assay type: functional, organism-based
[33] = system: Candida albicans; experiment: Antifungal activity against Candida albicans CGMCC 2.2086 assessed as inhibition of fungal growth incubated for 2 hrs in presence of protease K; assay type: functional, organism-based
[34] = system: Candida albicans; experiment: Antibiofilm activity against Candida albicans CGMCC 2.2086 assessed as inhibition of biofilm formation at antifungal MIC measured after 48 hrs by crystal violet staining based assay; assay type: functional
[35] = system: Candida albicans; experiment: Induction of Candida albicans CGMCC 2.2086 cell wall permeabilization at 128 uM by NPN probe based assay relative to control; assay type: functional
[36] = system: Candida albicans; experiment: Induction of Candida albicans CGMCC 2.2086 cell wall permeabilization by NPN probe based assay; assay type: functional, organism-based; settings: dose 1-128 µM
[37] = system: Cell membrane; experiment: Induction of cytoplasmic membrane depolarization in Candida albicans CGMCC 2.2086 at 0.5 to 2X MIC measured up to 3600 secs by DISC3-5 dye based fluorescence assay; assay type: subcellular; settings: time <= 3600.0 sec
[38] = system: Candida albicans; experiment: Induction of ROS generation in Candida albicans CGMCC 2.2086 measured after 60 mins by […] dye based fluorescence assay; assay type: functional, organism-based; settings: dose 0.5-128 µM
[39] = system: Cell membrane; experiment: Disruption of Candida albicans CGMCC 2.2086 cell membrane at 1X MIC measured after 1 hr by SYTO9/propidium iodide staining based fluorescence microscopic analysis; assay type: subcellular
[40] = system: Candida albicans; experiment: Induction of morphological changes in Candida albicans CGMCC 2.2086 assessed as appearance of cell pits at 1X MIC measured after 60 mins by SEM analysis; assay type: functional, organism-based
[41] = system: Candida albicans; experiment: Induction of morphological changes in Candida albicans CGMCC 2.2086 at 1X MIC measured after 60 mins by TEM analysis; assay type: functional, organism-based
[42] = Cytotoxicity against porcine IPEC-J2 cells assessed as reduction in cell viability at 128 uM incubated for 4 hrs by MTT assay; assay type: toxicity, cell-based, Sus scrofa; settings: pig, ipec-j2, 4 h
[43] = system: HEK293; experiment: Cytotoxicity against HEK293 cells assessed as reduction in cell viability at 128 uM incubated for 4 hrs by MTT assay; assay type: toxicity, cell-based; settings: human, hek293, 4 h

Structure (SMILES): CC(C)[C@H](N)C(=O)N[C@H](C(=O)N[C@H](CCCNC(=N)N)C(=O)N[C@@H](CCCNC(=N)N)C(=O)N[C@@H](Cc1c[nH]cn1)C(=O)N[C@H](C(=O)N[C@H](C(=O)N[C@H](C(=O)N[C@H](C(=O)N[C@H](CCCNC(=N)N)C(=O)N[C@@H](CCCNC(=N)N)C(=O)N[C@@H](Cc1c[nH]cn1)C(=O)N[C@H](C(=O)N[C@H](C(=O)N[C@H](C(=O)N[C@H](C(=O)N[C@H](CCCNC(=N)N)C(=O)N[C@@H](CCCNC(=N)N)C(=O)N[C@@H](Cc1c[nH]cn1)C(=O)N[C@H](C(=O)N[C@H](C(N)=O)C(C)C)C(C)C)C(C)C)C(C)C)C(C)C)C(C)C)C(C)C)C(C)C)C(C)C)C(C)C)C(C)C
- MIC95 [1]: 8 µM (≈ 20.4 µg/mL)
- MIC95 [2]: 4 µM (≈ 10.2 µg/mL)
- MIC95 [3]: 8 µM (≈ 20.4 µg/mL)
- MIC95 [4]: 4 µM (≈ 10.2 µg/mL)
- MIC95 [5]: 8 µM (≈ 20.4 µg/mL)
- MIC95 [6]: 8 µM (≈ 20.4 µg/mL)
- MIC95 [7]: 8 µM (≈ 20.4 µg/mL)
- MIC95 [8]: 8 µM (≈ 20.4 µg/mL)
- MIC95 [9]: 4 µM (≈ 10.2 µg/mL)
- MIC95 [10]: 8 µM (≈ 20.4 µg/mL)
- MIC95 [11]: 4 µM (≈ 10.2 µg/mL)
- MIC95 [12]: 4 µM (≈ 10.2 µg/mL)
- HC50 at 1 h [13]: > 512 µM
- hemolysis at 1 h, 512 µM [14]: 8.58%
- Activity [15]: Toxic
- MIC95 [16]: 64 µM
- MIC95 [17]: 32 µM
- MIC95 [18]: 4 µM
- MIC95 [19]: 8 µM
- MIC95 [20]: 8 µM
- MIC95 [21]: 32 µM
- MIC95 [22]: 32 µM
- Stability [23]: Unstable
- Stability [24]: Stable
- Stability [25]: Stable
- Stability [26]: Stable
- Stability [27]: Stable
- Stability [28]: Stable
- Stability [29]: Stable
- growth inhibition (GI) [30]: Active; No Alterations In The Antimicrobial Activity Was Observed In Presence Of Serum
- Activity [31]: Active
- Activity [32]: Active
- Activity [33]: Active
- inhibition (INH) [34]: 90%
- Activity [35]: <=100%
- Activity [36]: Dose-dependent-effect
- Activity [37]: Active
- Activity [38]: Dose-dependent-effect
- Activity [39]: Active
- Activity [40]: Active; Only Limited Number Of Pits Appeared
- Activity [41]: inactive

Structure (SMILES): CC[C@H](C)[C@H](N)C(=O)N[C@H](C(=O)N[C@H](CCCNC(=N)N)C(=O)N[C@@H](CCCNC(=N)N)C(=O)N[C@@H](Cc1c[nH]cn1)C(=O)N[C@H](C(=O)N[C@H](C(=O)N[C@H](C(=O)N[C@H](C(=O)N[C@H](CCCNC(=N)N)C(=O)N[C@@H](CCCNC(=N)N)C(=O)N[C@@H](Cc1c[nH]cn1)C(=O)N[C@H](C(=O)N[C@H](C(=O)N[C@H](C(=O)N[C@H](C(=O)N[C@H](CCCNC(=N)N)C(=O)N[C@@H](CCCNC(=N)N)C(=O)N[C@@H](Cc1c[nH]cn1)C(=O)N[C@H](C(=O)N[C@H](C(=O)N[C@H](C(=O)N[C@H](C(=O)N[C@H](CCCNC(=N)N)C(=O)N[C@@H](CCCNC(=N)N)C(=O)N[C@@H](Cc1c[nH]cn1)C(=O)N[C@H](C(=O)N[C@H](C(N)=O)[C@@H](C)CC)[C@@H](C)CC)[C@@H](C)CC)[C@@H](C)CC)[C@@H](C)CC)[C@@H](C)CC)[C@@H](C)CC)[C@@H](C)CC)[C@@H](C)CC)[C@@H](C)CC)[C@@H](C)CC)[C@@H](C)CC)[C@@H](C)CC)[C@@H](C)CC)[C@@H](C)CC
- MIC95 [1]: 4 µM (≈ 14.5 µg/mL)
- MIC95 [2]: 4 µM (≈ 14.5 µg/mL)
- MIC95 [3]: 4 µM (≈ 14.5 µg/mL)
- MIC95 [4]: 4 µM (≈ 14.5 µg/mL)
- MIC95 [5]: 8 µM (≈ 29 µg/mL)
- MIC95 [6]: 4 µM (≈ 14.5 µg/mL)
- MIC95 [7]: 8 µM (≈ 29 µg/mL)
- MIC95 [8]: 4 µM (≈ 14.5 µg/mL)
- MIC95 [9]: 8 µM (≈ 29 µg/mL)
- MIC95 [10]: 4 µM (≈ 14.5 µg/mL)
- MIC95 [11]: 8 µM (≈ 29 µg/mL)
- MIC95 [12]: 4 µM (≈ 14.5 µg/mL)
- HC50 at 1 h [13]: > 512 µM
- hemolysis at 1 h, 512 µM [14]: 38.9%
- Activity [42]: Toxic
- Activity [43]: Toxic
- MIC95 [16]: 32 µM
- MIC95 [17]: 8 µM
- MIC95 [18]: 8 µM
- MIC95 [19]: 8 µM
- MIC95 [20]: 16 µM
- MIC95 [21]: 16 µM
- MIC95 [22]: 16 µM
- Stability [23]: Unstable
- Stability [24]: Stable
- Stability [25]: Stable
- Stability [26]: Stable
- Stability [27]: Stable
- Stability [28]: Stable
- Stability [29]: Stable
